Results as given in patent US9000045B2, “CETP activity inhibitors” (Japan Tobacco Inc., priority 1997, dated 2015).

Tests used:
CETP [1] = biological target: T1, CETP (Homo sapiens, UniProt P11597); assay: In vitro CETP activity inhibitory effect in whole plasma; assay type: biochemical; parameters: Plasma containing [^3H]CE-HDL3 (600,000 dpm/ml) was prepared by adding donor lipoprotein obtained in the above (1) to plasma from healthy subjects; from tissue; host or cells: whole plasma of healthy subjects; conditions: plasma from healthy subjects containing [3H]CE-HDL3, incubated 4 hours at 37° C.; read-out: CETP activity inhibition in whole plasma IC50
T1 sequence (P11597 18-493): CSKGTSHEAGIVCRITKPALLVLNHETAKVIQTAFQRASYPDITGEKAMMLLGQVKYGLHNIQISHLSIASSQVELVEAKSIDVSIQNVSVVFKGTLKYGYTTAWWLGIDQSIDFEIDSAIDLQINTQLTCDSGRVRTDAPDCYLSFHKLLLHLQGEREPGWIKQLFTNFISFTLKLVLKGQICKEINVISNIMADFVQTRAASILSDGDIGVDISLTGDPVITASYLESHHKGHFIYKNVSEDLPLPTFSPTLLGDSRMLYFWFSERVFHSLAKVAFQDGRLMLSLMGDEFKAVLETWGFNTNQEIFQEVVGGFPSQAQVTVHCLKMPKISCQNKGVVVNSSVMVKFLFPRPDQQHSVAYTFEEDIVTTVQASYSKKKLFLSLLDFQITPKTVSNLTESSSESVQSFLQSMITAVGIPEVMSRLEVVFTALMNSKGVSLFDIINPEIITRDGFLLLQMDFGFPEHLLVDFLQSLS
How it was run: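 HDL3 was labelled with tritiated cholesterol (10 nM) for 18 h at 37° C in PBS with EDTA (pH 7.4). Test samples were in 1:1 N-methylpyrrolidone/PEG 400 and assayed in whole plasma. IC50 was calculated from % inhibition of CETP activity.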

CETP [2] = biological target: T1, CETP; assay: Ex vivo CETP activity inhibitory effect of plasma from transgenic mice; parameters: from tissue; host or cells: plasma of transgenic mice carrying the human CETP gene; conditions: mouse, po, p.o., 6 hours after administration, transgenic mice with human CETP gene, read-out: CETP activity inhibitory rate in plasma from transgenic mouse
Experimental: Potassium bromide (KBr) was added to the plasma of healthy subjects (40 ml) to adjust specific gravity to d=1.125 g/ml. Density gradient centrifugation (227,000×g, 4° C., 17 hours) was conducted to obtain a fraction with specific gravity d>1.125 g/ml (HDL3 fraction). The fraction thus obtained was dialyzed against a PBS solution [10 mM Na2HPO4/10 mM NaH2PO4/0.15 M NaCl/1 mM EDTA (pH 7.4)]. Then, tritium-labeled cholesterol (10 nM) (50.3 Ci/mM) was dissolved in 95% ethanol and added gradually to the above HDL3 fraction under stirring. The solution was incubated for 18 hours at 37° C. [Tritium-labeled cholesterol was esterified by this procedure by the action of lecithin:cholesterol acyltransferase (LCAT) present on the surface of HDL3 and taken up into the interior of HDL3 as tritium-labeled cholesterylester ([^3H]CE)]. After incubation, KBr was added and specific gravity was adjusted to d=1.21 g/ml. Density gradient centrifugation (227,000×g, 4° C., 17 hours) was conducted and the fraction with d<1.21 g/ml was harvested. The fraction thus obtained was dialyzed against the above PBS solution to obtain HDL3 that took up [^3H]CE ([^3H]CE-HDL3, specific gravity: 1.125<d<1.21, specific activity: 101,000 dpm/nM), which served as donor lipoprotein.
Physiological saline (specific gravity d=1.006 g/ml) was layered upon the plasma of healthy subjects (100 ml). Density gradient centrifugation (227,000×g, 4° C., 4 hours) was conducted and the fraction with specific gravity d>1.006 g/ml was harvested. KBr was added to the fraction thus obtained to adjust specific gravity to d=1.063 g/ml and density gradient centrifugation (227,000×g, 4° C., 20 hours) was conducted to harvest the fraction with specific gravity […]. The thus-obtained fraction was dialyzed against the above PBS solution to obtain fractions containing IDL and LDL (specific gravity: 1.006<d<1.063), which served as acceptor lipoprotein.
Samples were suspended in a 0.5% methylcellulose solution and administered orally using a plastic probe to transgenic mice having introduced human CETP gene (hereafter referred to as mice; prepared using the method described in Japanese Patent Application No. Hei 8-130660), which had been fasted overnight. Blood was collected before administration, and 6 hours after administration CETP activity in the plasma was determined using the following method.
Donor lipoprotein ([^3H]CE-HDL3, containing 0.21 μg cholesterol) obtained in the above (1), acceptor lipoprotein obtained in the above (2) (containing 21 μg of cholesterol), and 0.9 μl of mice plasma were added to microtubes. A total volume was adjusted to 600 μl/tube with a TBS solution [10 mM Tris/0.15 M NaCl (pH 7.4)]. The microtubes were incubated for 15 hours at 37° C. or 4° C. Then, an ice-cooled TBS solution (400 μl/tube) and a 0.3% dextran sulfate solution (100 μl/tube) containing 0.15 M magnesium chloride were added to the microtubes and mixed well. After allowing the microtubes to stand for 30 minutes at 4° C., centrifugation (8,000 rpm, 4° C., 10 minutes) was carried out and radioactivity of the resulting supernatant (HDL fraction) was determined with a scintillation counter.

Row | Structure (SMILES) | IC50 (CETP [1]) | inhibition at 30 mg/kg (CETP [2]) | inhibition at 10 mg/kg (CETP [2]) | inhibition at 100 mg/kg (CETP [2]) | inhibition at 300 mg/kg (CETP [2]; 300 mg/kg)
1 | CC(C)CC1(C(=O)Nc2ccccc2SC(=O)C(C)C)CCCCC1 [Example 27, S-[2-(1-isobutylcyclohexanecarbonylamino)phenyl]2-methylthiopropionate] | 7 µM | 31% |  |  | 
2 | CCC(CC)CC1(C(=O)Nc2ccccc2SC(=O)C2CCN(C(C)=O)CC2)CCCCC1 [Example 28, S[2-[1-(2-ethylbutyl)cyclohexanecarbonylamino)-phenyl]1-acetylpiperidine-4-thiocarboxylate] | 6 µM | 36% |  |  | 
3 | CC(C)CCC1(C(=O)Nc2ccccc2SC(=O)C(C)(C)C)CCCCC1 [Example 33] | 61 µM | 39% | 23% | 52% | 55%
4 | CC(=O)N[C@@H](Cc1ccccc1)C(=O)Sc1ccccc1NC(=O)C1(CCC(C)C)CCCCC1 [Example 34] | 9 µM | 4% |  |  | 
5 | CC(C)CCC1(C(=O)Nc2ccccc2SC(=O)CCl)CCCCC1 [Example 36] | 16 µM | 19% |  |  | 
6 | COCC(=O)Sc1ccccc1NC(=O)C1(CCC(C)C)CCCCC1 [Example 37] | 7 µM | 42% | 18% | 47% | 
7 | CCC(=O)Sc1ccccc1NC(=O)C1(CCC(C)C)CCCCC1 [Example 38] | 6 µM | 40% | 15% |  | 
8 | CC(C)CCC1(C(=O)Nc2ccccc2SC(=O)COc2ccccc2)CCCCC1 [Example 39] | 11 µM | 41% | 17% |  | 
9 | CC(C)CCC1(C(=O)Nc2ccccc2SC(=O)C(C)C)CCCCC1 [Example 40] | 23 µM | 48% | 20% | 64% | 
10 | CC(C)CCC1(C(=O)Nc2ccccc2SC(=O)COc2ccc(Cl)cc2)CCCCC1 [Example 41] | 7 µM | 42% | 27% |  | 
11 | CC(C)CCC1(C(=O)Nc2ccccc2SC(=O)C2CC2)CCCCC1 [Example 42] | 9 µM | 38% | 31% |  | 
12 | CC(=O)N[C@@H](CCC(N)=O)C(=O)Sc1ccccc1NC(=O)C1(CCC(C)C)CCCCC1 [Example 45] | 7 µM | 36% | 18% |  | 
13 | CC(C)CCC1(C(=O)Nc2ccccc2SC(=O)C(C)(C)O)CCCCC1 [Example 46] | 5 µM | 48% | 22% |  | 
14 | CC(C)CCC1(C(=O)Nc2ccccc2SC(=O)C2(N)CCCCC2)CCCCC1 [Example 47] | 6 µM | 31% |  |  | 
15 | CC(C)CCC1(C(=O)Nc2ccccc2SC(=O)C(C)(C)C)CCCC1 [Example 48] | 49 µM | 31% |  | 50% | 
16 | CC(=O)Sc1ccccc1NC(=O)C1(CCC(C)C)CCCC1 [Example 49] | 6 µM | 29% |  |  | 
17 | CC(C)CCC1(C(=O)Nc2cc(C(F)(F)F)ccc2SC(=O)C(C)(C)C)CCCCC1 [Example 52] | 8 µM | 8% |  |  | 
18 | CC(C)CCC1(C(=O)Nc2ccccc2SC(=O)Nc2ccccc2)CCCCC1 [Example 56] | 13 µM | 34% |  |  | 
19 | CCC(CC)CC1(C(=O)Nc2ccccc2SC(C)=O)CCCCC1 [Example 59] | 4 µM | 44% |  |  | 
20 | CCC(CC)CC1(C(=O)Nc2ccccc2SC(=O)C(C)(C)C)CCCCC1 [Example 60] | 41 µM | 44% |  |  | 
21 | CCC(CC)CC1(C(=O)Nc2ccccc2SC(=O)COC)CCCCC1 [Example 61] | 4 µM | 38% |  |  | 

Results, then the molecule that gave them:

Row | IC50 (CETP [1]) | inhibition at 30 mg/kg (CETP [2]) | inhibition at 10 mg/kg (CETP [2]) | inhibition at 100 mg/kg (CETP [2]) | inhibition at 300 mg/kg (CETP [2]; 300 mg/kg) | Structure (SMILES)
22 | 4 µM | 38% |  |  |  | CCC(CC)CC1(C(=O)Nc2ccccc2SC(=O)C(C)(C)O)CCCCC1 [Example 62]
23 | 4 µM | 43% |  |  |  | CCC(CC)CC1(C(=O)Nc2ccccc2SC(=O)COc2ccc(Cl)cc2)CCCCC1 [Example 63]
24 | 4 µM | 34% |  |  |  | CC(C)CC1(C(=O)Nc2ccccc2SC(=O)COc2ccc(Cl)cc2)CCCCC1 [Example 64]
25 | 14 µM | 5% |  |  |  | CC(C)CCC1(C(=O)Nc2cc([N+](=O)[O-])ccc2SC(=O)C(C)(C)C)CCCCC1 [Example 74]
26 | 25 µM | 1% |  |  |  | CC(C)CCC1(C(=O)Nc2cc(C#N)ccc2SC(=O)C(C)(C)C)CCCCC1 [Example 75]
27 | 18 µM | 4% |  |  |  | CC(C)CCC1(C(=O)Nc2cc(Cl)ccc2SC(=O)C(C)(C)C)CCCCC1 [Example 76]
28 | 17 µM | 1% |  |  |  | CC(C)CCC1(C(=O)Nc2ccc(Cl)cc2SC(=O)C(C)(C)C)CCCCC1 [Example 77]
29 | 60 µM | 26% | 14% |  |  | CC(C)CCC1(C(=O)Nc2cc(F)ccc2SC(=O)C(C)(C)C)CCCCC1 [Example 79]
30 | 6 µM | 12% |  |  |  | CC(C)CCC1(C(=O)Nc2cc(F)c(F)cc2SC(=O)C(C)(C)C)CCCCC1 [Example 80]
31 | 21 µM | 10% |  |  |  | CC(C)CCC1(C(=O)Nc2ccc(F)cc2SC(=O)C(C)(C)C)CCCCC1 [Example 81]
